Results reported in patent US4818816A, “Process for the organic synthesis of oligosaccharides and derivatives thereof” (Choay, S.A., priority 1981, dated 1989).

Experiments:
Xa factor [1] = test: anti-Xa activity, Yin-Wessler test; assay type: biochemical
Xa factor [2] = test: anti-Xa test using a chromogen substrate (method of Teien A.M. and Lie modified); assay type: biochemical; conditions: Xa factor (Sigma) 8 u/ml, substrate 1.33 mM, diluted human plasma, 37° C.
Description: In a test using a chromogen substrate, this activity has even been 4000 anti-Xa units/mg (method of Teien A.M. and Lie modified; Thrombosis Research No. 10, 1977, 388-410).
This test consists of using the Xa factor marketed by the Sigma company in solution at 8 u/ml in physiological serum, the concentration of the substrate being 1.33 mM.
To carry out this test it is possible to proceed as follows.
10 μl of solution to be determined and 300 μl of human plasma diluted with Tris maleate buffer 0.02M, […] are mixed.
It is left to incubate one minute at 37° C.
100 μl of the above-said Xa factor (8 u/ml) are added and one minute later, the solution obtained is injected into the substrate.

blood coagulation = test: APTT test, overall anticoagulant activity
AT III = test: affinity for AT III; assay type: binding

SMILES | anti-Xa activity (Yin-Wessler) (Xa factor [1]) [u/mg] | Yin-Wessler titres compared with those of heparin (Xa factor [1]; compared with heparin) | selective inhibition activity of the activated X factor or Xa factor of the blood (Xa factor [1]; test not specified) | anti-Xa activity in a test using a chromogen substrate (Xa factor [2]) [anti-Xa units/mg] | overall anticoagulant activity (APTT test) (blood coagulation) [u/mg] | affinity for AT III (AT III)
O=C(O)[C@H]1O[C@@H](O[C@H]2[C@H](OS(=O)(=O)O)[C@@H](NS(=O)(=O)O)[C@@H](O[C@H]3[C@H](O)[C@@H](OS(=O)(=O)O)[C@H](O[C@H]4[C@H](O)[C@@H](NS(=O)(=O)O)C(O)O[C@@H]4COS(=O)(=O)O)O[C@H]3C(=O)O)O[C@@H]2COS(=O)(=O)O)[C@H](O)[C@@H](O)[C@@H]1O[C@H]1O[C@H](COS(=O)(=O)O)[C@@H](O)[C@H](O)[C@H]1NS(=O)(=O)O (stereo partly shown) [pentasaccharide 50] | ≥ 2000 | distinctly higher | very high selective inhibition activity | 4000 | 4 | high affinity
O=C(O)[C@H]1O[C@@H](O[C@H]2[C@H](OS(=O)(=O)O)[C@@H](NS(=O)(=O)O)C(O)O[C@@H]2COS(=O)(=O)O)[C@H](O)[C@@H](O)[C@@H]1O[C@H]1O[C@H](COS(=O)(=O)O)[C@@H](O)[C@H](O)[C@H]1NS(=O)(=O)O (stereo partly shown) | ~7 |  |  |  |  | 
